{"source": "patent US9126999B2", "about": "“Tetrahydropyrazolopyrimidine compounds” (EISAI R&D MANAGEMENT CO., LTD., priority 2012, dated 2015)", "system": "DBA/1 mice", "test": "Pristane: DBA/1 strain lupus disease model", "type": "in vivo, mouse", "protocol": "Figure Legend: Female DBA/1 mice at 10-11 weeks of age were given an intraperitoneal injection of 0.5 ml pristane or PBS. Once-a-day oral dosing with Vehicle (Veh; 0.5% methyl-cellulose) or 300 mg/kg ER-892887 was begun 3.5 months after pristane injection for a total of 3 months treatment. (A) Mice were euthanized after 3 months of compound treatment, and anti-dsDNA and anti-RiboP titers were measured in blood plasma samples by ELISA (statistical significance determined by Mann-Whitney test). (B) Arthritis development was assessed monthly by visual scoring. (C) The expression of IFN-regulated genes in whole blood was measured by a qPCR panel after 3 months of treatment, and an IFN gene signature score was calculated (see Pharmacology Materials and Methods section for details regarding IFN score calculation).\nFigure Legend: Female DBA/1 mice at 11-12 weeks of age were given an intraperitoneal injection of 0.5 ml of pristane or PBS. Once-a-day oral dosing with Vehicle (Veh; 0.5% methyl-cellulose) or 33, 100, or 300 mg/kg ER-892887 was begun 2 months after pristane injection for a total of 3 months treatment. Mice were euthanized after 3 months of compound treatment, and anti-dsDNA (A), -RiboP (B), -Sm/nRNP (C), and -Histone (D) titers were measured in blood plasma samples by ELISA (statistical significance determined by Mann-Whitney test). (E) Summary of mortality observed in the study during 3 months of compound treatment. (F) The expression of IFN-regulated genes in whole blood was measured by a qPCR panel at the last time point for Vehicle and 300 mg/kg ER-892887 treated mice, and an IFN gene signature score was calculated (see Pharmacology Materials and Methods section for details regarding IFN score calculation).\nFigure Legend: Female DBA/1 mice at 11 weeks of age were given an intraperitoneal injection of 0.5 ml pristane or PBS. Once-a-day oral dosing with Vehicle (Veh; 0.5% methyl-cellulose) or 300 mg/kg ER-892887, 100 mg/kg hydroxychloroquine, 1 mg/kg prednisolone or 100 mg/kg mycophenolate was begun 2 months after pristane injection and continued for 3 months of treatment. (A) At the end of the 3 month treatment arthritis development was assessed by visual scoring of swelling and inflammation. (B) Mice were euthanized after 3 months of compound treatment, and anti-dsDNA, anti-histone, anti-Sm/RNP and anti-RiboP titers were measured in blood plasma samples by ELISA (statistical significance determined by Mann-Whitney test). ELISA values falling above or below the range of the standard curve were assigned a value equal to the highest or lowest valid measurement, as appropriate. (C) The expression of IFN-regulated genes in whole blood was measured by a qPCR panel after 3 months of treatment. […] (D) IFN scores of genes regulated by pristane in this experiment are shown.\nFIG. 14 presents the effect of compound ER-892887 on arthritis and autoantibodies in the Pristane: DBA/1 strain lupus disease model. Figure Legend: Female DBA/1 mice at 10 weeks of age were given an intraperitoneal injection of 0.5 ml pristane or PBS. At 22 weeks of age, mice were randomized into groups with equivalent median anti-dsDNA titers and treated with Vehicle (Veh; 0.5% methyl-cellulose) alone or 300 mg/kg ER-892887 once-a-day orally (QD PO). Arthritis symptoms (swelling and inflammation) were recorded monthly by blinded observers. All mice were sacrificed at 34 weeks of age (12 weeks of treatment) and blood plasma autoantibody titers were determined by ELISA. Prior to termination paws were x-rayed and scored for bone damage and erosions by two blinded analysts. (A) Top—Arthritis scores were calculated monthly in vehicle and compound dosed-groups. (A) Bottom—X-ray scores were calculated after three months of treatment. (B) Autoantibody titers were measured in terminal blood plasma samples by ELISA (statistical significance determined by Mann-Whitney test). […]", "note": "Entries after “also recorded” stand apart in the source; their conditions may differ.", "data": [{"compound": "COc1ccc([C@@H]2C[C@H](C(F)(F)F)n3nc(-c4ccc(C(=O)N5CCNCC5)cc4)cc3N2)cc1OC", "note": "[ER-892887, (4-((5S,7R)-5-(3,4-dimethoxyphenyl)-7-(trifluoromethyl)-4,5,6,7-tetrahydropyrazolo[1,5-a]pyrimidin-2-yl)phenyl)(piperazin-1-yl)methanone]", "values": [{"measurement": "IFN gene signature score", "result": "reduction"}, {"measurement": "RNA-related reactivity such as anti-RiboP titers", "result": "particularly robust impact"}, {"measurement": "arthritis severity", "result": "reduced arthritis severity"}, {"measurement": "interferon gene signature score, comparison with three commonly used lupus treatments", "result": "suppressed the interferon gene signature score significantly"}, {"measurement": "various auto-antibodies", "result": "suppressed"}, {"measurement": "suppression of autoantibodies compared with hydroxychloroquine or prednisolone", "setting": "at the doses tested", "result": "better"}, {"measurement": "whole blood interferon-driven gene expression", "setting": "qPCR panel", "result": "reduction; also recorded: suppressed"}]}]}
